Data reported in publication PMC6628017, “Advanced Glycation End-Products Can Activate or Block Bitter Taste Receptors” (Nutrients, 2019).
Entries after “also recorded” stand apart in the source; their conditions may differ. Where a name gives a salt, the structure may show the parent alone. Read-outs that look alike come from different tables or passages of the source. One block for each compound: values may come before it.

What was measured:
[1] = Solubility in calcium assay buffer; type: physicochemical; conditions: 1X HBSS, 20 mM HEPES
Description: The cell-culture medium was composed of Dulbecco’s modified Eagle’s medium-F12 (Gibco, Life technologies, Carlsbad, CA, USA) supplemented with 10% heat-inactivated fetal bovine serum (Sigma, Burlington, MA, USA) and 1% penicillin-streptomycin (Gibco, Life technologies). We used hygromycin (Sigma Aldrich, Oakville, ON, Canada) in the selection medium to generate stable cells. All bitter compounds (quinine hydrochloride, diphenhydramine or DPH, and cromolyn) were purchased from Sigma Aldrich (Oakville, ON, Canada). We purchased glyoxal-derived lysine dimer (GOLD) and Nε-Carboxymethyl-L-lysine (CML) from PolyPeptide Laboratories (Strasbourg, France). All the compounds were freshly prepared using calcium assay buffer (1X HBSS, 20 mM HEPES) on the day of the experiment. Calcium sensitive dye Fluo-4 NW kit was purchased from Life technologies (Carlsbad, CA USA).

T2R4 [2] = target: T1, T2R4 (Homo sapiens, UniProt Q9NYW5); experiment: Calcium mobilization assay, HEK293T cells stably expressing T2R4; type: cell-based; conditions: for Calcium mobilization by compound alone, T2R4 cells: 100 μM, compared to basal; for IC50: 3–200 μM AGE with quinine 1 mM, ± standard deviation, read-out: IC50, inhibition of quinine-activated T2R4 calcium mobilization
T1 sequence (Q9NYW5 1-299): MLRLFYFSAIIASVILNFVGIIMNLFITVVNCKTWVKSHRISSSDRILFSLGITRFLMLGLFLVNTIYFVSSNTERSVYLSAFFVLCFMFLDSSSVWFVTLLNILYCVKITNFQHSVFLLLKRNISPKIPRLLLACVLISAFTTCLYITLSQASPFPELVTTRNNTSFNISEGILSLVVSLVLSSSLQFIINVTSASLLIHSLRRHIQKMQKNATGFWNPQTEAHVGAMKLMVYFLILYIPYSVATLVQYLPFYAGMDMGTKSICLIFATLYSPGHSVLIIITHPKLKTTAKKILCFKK
Description: (§1) Human Embryonic Kidney (HEK293T) cell line was purchased from ATCC (Manassas, VA, USA). N-terminal FLAG epitope tagged human TAS2R4, TAS2R14, and TAS2R20 genes were codon-optimized for expression in mammalian cells and cloned into the KpnI-NotI site of pcDNA 3.1/Hygro (+) expression vector, and they were commercially synthesized (GenScript Inc., Piscataway, MA, USA) as previously described in Reference. We generated stable HEK293T cells expressing the above T2Rs in the selection medium containing 200 μg/mL hygromycin as described previously in References.
(§2) Calcium mobilization assays on each T2R expressing stable cells were performed by incubation with Fluo-4 NW dye containing probenecid (2.5 mM) for 35 min at 37 °C, followed by 35 min at room temperature. We then treated the cells either with the putative agonist alone or in combination with the AGE compound. To elucidate the action of AGEs on T2Rs, the cells were initially treated with a fixed concentration (100 μM). To determine IC50 for AGE compounds, the agonist concentration was kept constant whilst the AGE compound was added in a concentration dependent manner (3 μM to 200 μM). To determine EC50 for the agonists, we used a concentration range from 3 μM to 200 μM. The Flexstation-3 automated fluorescence microplate reader (Molecular devices) was used to measure the calcium at 525 nm emission, followed by excitation at 494 nm. ΔRFU (relative fluorescence units) were calculated by the system based on the difference between the maximum response and minimum response. We used HEK293T cells as the control for baseline subtraction. The data were collected from at least three independent experiments performed in triplicates and analyzed using GraphPad Prism V. 6.0 (GraphPadSoftware, La Jolla, CA, USA).

T2R14 = target: T2, T2R14 (Homo sapiens, UniProt Q9NYV8); experiment: Calcium mobilization assay, HEK293T cells stably expressing T2R14; type: cell-based; conditions: for Calcium response by compound alone, T2R14 cells: 100 μM; for Inhibition of DPH-activated T2R14 calcium mobilization: 3–200 μM AGE with DPH 500 μM
T2 sequence (Q9NYV8 1-317): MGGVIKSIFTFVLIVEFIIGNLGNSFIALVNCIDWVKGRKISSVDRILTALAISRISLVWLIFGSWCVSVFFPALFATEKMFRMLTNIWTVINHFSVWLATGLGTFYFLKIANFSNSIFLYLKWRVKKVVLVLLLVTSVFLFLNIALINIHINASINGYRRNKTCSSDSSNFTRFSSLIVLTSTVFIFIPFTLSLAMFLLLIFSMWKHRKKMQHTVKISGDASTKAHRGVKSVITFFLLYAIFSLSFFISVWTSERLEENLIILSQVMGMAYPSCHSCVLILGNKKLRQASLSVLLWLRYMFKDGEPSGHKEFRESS
Description: as §1, §2

T2R20 = target: T3, T2R20 (Homo sapiens, UniProt P59543); experiment: Calcium mobilization assay, HEK293T cells stably expressing T2R20; type: cell-based; conditions: for Activation of T2R20 by compound alone: 100 μM; for EC50: 3–200 μM, ± standard deviation, read-out: EC50, activation of T2R20 calcium mobilization
T3 sequence (P59543 1-309): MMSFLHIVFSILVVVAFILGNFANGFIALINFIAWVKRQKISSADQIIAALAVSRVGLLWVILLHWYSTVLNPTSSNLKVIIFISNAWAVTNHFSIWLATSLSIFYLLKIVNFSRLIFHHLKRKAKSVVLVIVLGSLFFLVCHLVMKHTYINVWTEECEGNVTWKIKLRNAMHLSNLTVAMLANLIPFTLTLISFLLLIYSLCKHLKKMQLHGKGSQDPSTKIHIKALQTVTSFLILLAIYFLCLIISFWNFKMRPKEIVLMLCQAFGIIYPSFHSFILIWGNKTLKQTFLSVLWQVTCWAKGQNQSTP
Description: as §1, §2

T2R4 [3] = target: T1, T2R4; conditions: cited from earlier work

Compound: N[C@@H](CCCCNCC(=O)O)C(=O)O [CML, Nε-Carboxymethyl-L-lysine]
Calcium mobilization by compound alone, T2R4 cells (T2R4 [2]): did not cause a significant increase in calcium mobilization | IC50 (T2R4 [2]): 32.6 ± 9.5 µM | Calcium response by compound alone, T2R14 cells (T2R14): did not show any calcium response | Inhibition of DPH-activated T2R14 calcium mobilization (T2R14): no significant effect in suppressing the DPH activation of T2R14 | Activation of T2R20 by compound alone (T2R20): activated T2R20 | EC50 (T2R20): 65.3 ± 17.8 µM

Compound: NCCCC[C@@H](C(=O)O)N(CC(=O)O)CC(=O)O [BCML, Nα, Nα-bis(carboxymethyl)-L-lysine]
IC50 (T2R4 [3]; read-out: IC50 against quinine, T2R4 antagonist): 0.06 µM

Compound: C=C[C@H]1C[N@@]2CC[C@H]1C[C@H]2[C@H](O)c1ccnc2ccc(OC)cc12 [quinine, quinine hydrochloride]
EC50 (T2R4 [3]; agonist): 1000 µM

Compound: CC(NCCCC[C@H](N)C(=O)O)C(=O)O (some centres unmarked) [Nε-Carboxyethyl Lysine (CEL), Nε-Carboxyethyl Lysine]
Solubility in calcium assay buffer [1]: insoluble or only slightly soluble

Now from value to compound, other results behind:

Solubility in calcium assay buffer [1]: insoluble or only slightly soluble
Compound: Pentosidine

IC50 (T2R4 [2]): 10.5 ± 4.7 µM | Calcium response by compound alone, T2R14 cells (T2R14): did not show any calcium response | Activation of T2R20 by compound alone (T2R20): activated T2R20 | EC50 (T2R20): 79.3 ± 29.2 µM
Compound: NC(CCCCn1cc[n+](CCCCC(N)C(=O)O)c1)C(=O)O (centres unmarked) [GOLD, glyoxal-derived lysine dimer]
Calcium mobilization by compound alone, T2R4 cells (T2R4 [2]): did not cause a significant increase in calcium mobilization | Inhibition of DPH-activated T2R14 calcium mobilization (T2R14): did not generate a reverse sigmoid curve to determine the IC50 value; also recorded: no dose-dependent inhibition observed

EC50 (T2R20): 50.7 ± 15.1 µM
Compound: O=C(O)c1cc(=O)c2c(OCC(O)COc3cccc4oc(C(=O)O)cc(=O)c34)cccc2o1 [cromolyn, reference compound]
